Data: ChEMBL document CHEMBL1201862, “PubChem BioAssay data set” (2004)
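Growth conditions: 96-well plates. Treatment: test compound, 48 hours, 5 concentrations. Analysis: linear interpolation between bracketing concentrations; unreached endpoints set to highest concentration. The concentration for 50% growth inhibition is given as GI50.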 Activity calls are given as the source filed them. Rule as the data show it: active = GI50 up to about 1.1 µM and inactive = higher.

Columns and labels:
Experiment in all cases: NCI-60 cell line screen, 48 h
786-0 = system: 786-0
A498 = system: A498
A549 = system: A549
ACHN = system: ACHN
BT-549 = system: BT-549
CAKI-1 = system: CAKI-1
CCRF-CEM = system: CCRF-CEM
COLO 205 = system: COLO 205
EKVX = system: EKVX
HCC 2998 = system: HCC 2998
HCT-116 = system: HCT-116
HCT-15 = system: HCT-15
HL-60 = system: HL-60
HOP-92 = system: HOP-92
HT-29 = system: HT-29
Hs-578T = system: Hs-578T
IGROV-1 = system: IGROV-1
K562 = system: K562
KM12 = system: KM12
LOX IMVI = system: LOX IMVI
M14 = system: M14
MCF7 = system: MCF7
MDA-MB-231 = system: MDA-MB-231
MDA-MB-435 = system: MDA-MB-435
MDA-N = system: MDA-N
MOLT-4 = system: MOLT-4
Malme-3M = system: Malme-3M
NCI-H226 = system: NCI-H226
NCI-H23 = system: NCI-H23
NCI-H460 = system: NCI-H460
NCI-H522 = system: NCI-H522
NCI/ADR-RES = system: NCI/ADR-RES
OVCAR-4 = system: OVCAR-4
OVCAR-5 = system: OVCAR-5
OVCAR-8 = system: OVCAR-8
PC-3 = system: PC-3
RPMI-8226 = system: RPMI-8226
SF-268 = system: SF-268
SF-539 = system: SF-539
SK-MEL-28 = system: SK-MEL-28
SK-MEL-2 = system: SK-MEL-2
SK-MEL-5 = system: SK-MEL-5
SN12C = system: SN12C
SNB-19 = system: SNB-19
SR = system: SR
SW-620 = system: SW-620
TK-10 = system: TK-10
U-251 = system: U-251
UACC-257 = system: UACC-257
UACC-62 = system: UACC-62
UO-31 = system: UO-31
HOP-62 = system: HOP-62
OVCAR-3 = system: OVCAR-3
RXF 393 = system: RXF 393
SF-295 = system: SF-295
SK-OV-3 = system: SK-OV-3
SNB-75 = system: SNB-75
DU-145 = system: DU-145

In the case of `CC(C)C1(Cl)CCC2C3(C)CCCC(C)(C(=O)O)C3CC(Cl)C2(Cl)C1Cl` (stereo not drawn), the GI50 (786-0) is reported as 32.6 µM (inactive), the GI50 (A498) is reported as 41.7 µM (inactive) and the GI50 (A549) is reported as 23.5 µM (inactive). For the same compound, the GI50 (ACHN) was 43.2 µM (inactive), the GI50 (BT-549) was 48.8 µM (inactive) and the GI50 (CAKI-1) was 43 µM (inactive). For the same compound, the GI50 (CCRF-CEM) was 22.8 µM (inactive), the GI50 (COLO 205) was 18 µM (inactive) and the GI50 (EKVX) was 21.5 µM (inactive). The GI50 (HCC 2998) was 27.4 µM (inactive), the GI50 (HCT-116) was 28.2 µM (inactive) and the GI50 (HCT-15) was 36.6 µM. For the same compound, the GI50 (HL-60) was 22.3 µM (inactive), the GI50 (HOP-92) was 37.4 µM (inactive) and the GI50 (HT-29) was 14.7 µM (inactive). For the same compound, the GI50 (Hs-578T) was 37.5 µM (inactive), the GI50 (IGROV-1) was 54.7 µM (inactive) and the GI50 (K562) was 24.3 µM (inactive). The GI50 (KM12) was 18.2 µM (inactive), the GI50 (LOX IMVI) was 33.8 µM (inactive) and the GI50 (M14) was 23.1 µM (inactive). For the same compound, the GI50 (MCF7) was 30.5 µM (inactive), the GI50 (MDA-MB-231) was 33.3 µM (inactive) and the GI50 (MDA-MB-435) was 25.9 µM (inactive). The GI50 (MDA-N) was 32.4 µM (inactive), the GI50 (MOLT-4) was 19.4 µM (inactive) and the GI50 (Malme-3M) was 25.5 µM (inactive). The GI50 (NCI-H226) was 20.9 µM (inactive), the GI50 (NCI-H23) was 54.2 µM (inactive) and the GI50 (NCI-H460) was 23.9 µM (inactive). The GI50 (NCI-H522) was 20 µM (inactive), the GI50 (NCI/ADR-RES) was 32.5 µM (inactive) and the GI50 (OVCAR-4) was 24.8 µM (inactive). For the same compound, the GI50 (OVCAR-5) was 22.4 µM (inactive), the GI50 (OVCAR-8) was 38.7 µM (inactive) and the GI50 (PC-3) was 34.6 µM (inactive). The GI50 (RPMI-8226) was 20.8 µM (inactive), the GI50 (SF-268) was 45 µM (inactive) and the GI50 (SF-539) was 21.7 µM (inactive). For the same compound, the GI50 (SK-MEL-28) was 16.7 µM (inactive), the GI50 (SK-MEL-2) was 31.4 µM (inactive) and the GI50 (SK-MEL-5) was 25.8 µM (inactive). The GI50 (SN12C) was 39.2 µM (inactive), the GI50 (SNB-19) was 34.8 µM (inactive) and the GI50 (SR) was 25.6 µM (inactive). The GI50 (SW-620) was 24.8 µM (inactive), the GI50 (TK-10) was 43.3 µM (inactive) and the GI50 (U-251) was 20.7 µM (inactive). The GI50 (UACC-257) was 31.1 µM (inactive), the GI50 (UACC-62) was 24.7 µM (inactive) and the GI50 (UO-31) was 32.1 µM (inactive).
`O=C1C=CC=C/C1=C1\N=C(c2ccccc2OCC(=O)c2ccccc2)SS1` was tested, and the GI50 (786-0) was > 100 µM (inactive), the GI50 (A498) was > 100 µM (inactive) and the GI50 (A549) was > 100 µM (inactive). For the same compound, the GI50 (ACHN) was > 100 µM (inactive), the GI50 (BT-549) was 46.1 µM (inactive) and the GI50 (CAKI-1) was > 100 µM (inactive). For the same compound, the GI50 (CCRF-CEM) was > 100 µM (inactive), the GI50 (EKVX) was > 100 µM (inactive) and the GI50 (HCC 2998) was > 100 µM (inactive). The GI50 (HCT-116) was > 100 µM (inactive), the GI50 (HCT-15) was over 100 µM and the GI50 (HL-60) was > 100 µM (inactive). The GI50 (HOP-62) was 39.4 µM (inactive), the GI50 (HOP-92) was > 100 µM (inactive) and the GI50 (HT-29) was > 100 µM (inactive). For the same compound, the GI50 (Hs-578T) was 26.9 µM (inactive), the GI50 (IGROV-1) was > 100 µM (inactive) and the GI50 (K562) was > 100 µM (inactive). The GI50 (KM12) was > 100 µM (inactive), the GI50 (LOX IMVI) was > 100 µM (inactive) and the GI50 (M14) was > 100 µM (inactive). For the same compound, the GI50 (MCF7) was > 100 µM (inactive), the GI50 (MDA-MB-231) was > 100 µM (inactive) and the GI50 (MDA-MB-435) was > 100 µM (inactive). The GI50 (MDA-N) was > 100 µM (inactive), the GI50 (MOLT-4) was 22.6 µM (inactive) and the GI50 (Malme-3M) was > 100 µM (inactive). The GI50 (NCI-H226) was > 100 µM (inactive), the GI50 (NCI-H23) was > 100 µM (inactive) and the GI50 (NCI-H460) was > 100 µM (inactive). For the same compound, the GI50 (NCI/ADR-RES) was > 100 µM (inactive), the GI50 (OVCAR-3) was > 100 µM (inactive) and the GI50 (OVCAR-4) was > 100 µM (inactive). For the same compound, the GI50 (OVCAR-5) was > 100 µM (inactive), the GI50 (OVCAR-8) was 73.5 µM (inactive) and the GI50 (RPMI-8226) was > 100 µM (inactive). For the same compound, the GI50 (RXF 393) was > 100 µM (inactive), the GI50 (SF-268) was 58.1 µM (inactive) and the GI50 (SF-295) was 74.5 µM (inactive). For the same compound, the GI50 (SF-539) was 86.7 µM (inactive), the GI50 (SK-MEL-28) was > 100 µM (inactive) and the GI50 (SK-MEL-2) was > 100 µM (inactive). For the same compound, the GI50 (SK-OV-3) was > 100 µM (inactive), the GI50 (SN12C) was > 100 µM (inactive) and the GI50 (SNB-19) was > 100 µM (inactive). For the same compound, the GI50 (SNB-75) was 19.6 µM (inactive), the GI50 (SW-620) was > 100 µM (inactive) and the GI50 (TK-10) was > 100 µM (inactive). For the same compound, the GI50 (U-251) was 44.8 µM (inactive), the GI50 (UACC-257) was > 100 µM (inactive) and the GI50 (UACC-62) was > 100 µM (inactive). The GI50 (UO-31) was > 100 µM (inactive).
For `COc1cccc2c(=O)c3c(O)c4cc(N(C)C)ccc4c(OC(C)=O)c3oc12`, the GI50 (786-0) was 11.7 µM (inactive), the GI50 (A498) was 21 µM (inactive) and the GI50 (A549) was 26.1 µM (inactive). The GI50 (ACHN) was 15.2 µM (inactive), the GI50 (BT-549) was 10.2 µM (inactive) and the GI50 (CAKI-1) was 5.24 µM (inactive). The GI50 (CCRF-CEM) was 5.33 µM (inactive), the GI50 (COLO 205) was 4.1 µM (inactive) and the GI50 (DU-145) was 17.8 µM (inactive). For the same compound, the GI50 (EKVX) was 12.5 µM (inactive), the GI50 (HCC 2998) was 15 µM (inactive) and the GI50 (HCT-116) was 13.9 µM (inactive). The GI50 (HCT-15) was 12.7 µM, the GI50 (HL-60) was 3.96 µM (inactive) and the GI50 (HOP-62) was 15 µM (inactive). For the same compound, the GI50 (HOP-92) was 17.4 µM (inactive), the GI50 (HT-29) was 14.1 µM (inactive) and the GI50 (Hs-578T) was 14.3 µM (inactive). The GI50 (K562) was 15.6 µM (inactive), the GI50 (KM12) was 13 µM (inactive) and the GI50 (LOX IMVI) was 12 µM (inactive). For the same compound, the GI50 (M14) was 9.98 µM (inactive), the GI50 (MCF7) was 14.5 µM (inactive) and the GI50 (MDA-MB-231) was 11.4 µM (inactive). For the same compound, the GI50 (MDA-MB-435) was 12.6 µM (inactive), the GI50 (MDA-N) was 13.7 µM (inactive) and the GI50 (MOLT-4) was 3.1 µM (inactive). For the same compound, the GI50 (Malme-3M) was 2.56 µM (inactive), the GI50 (NCI-H226) was 23.2 µM (inactive) and the GI50 (NCI-H23) was 17.2 µM (inactive). The GI50 (NCI-H460) was 18.2 µM (inactive), the GI50 (NCI/ADR-RES) was 21.7 µM (inactive) and the GI50 (OVCAR-3) was 4 µM (inactive). For the same compound, the GI50 (OVCAR-4) was 13.5 µM (inactive), the GI50 (OVCAR-5) was 38.9 µM (inactive) and the GI50 (OVCAR-8) was 15.7 µM (inactive). The GI50 (PC-3) was 17.6 µM (inactive), the GI50 (RPMI-8226) was 13.2 µM (inactive) and the GI50 (RXF 393) was 4.72 µM (inactive). The GI50 (SF-268) was 17 µM (inactive), the GI50 (SF-295) was 25.1 µM (inactive) and the GI50 (SF-539) was 17.2 µM (inactive). For the same compound, the GI50 (SK-MEL-28) was 10.5 µM (inactive), the GI50 (SK-MEL-2) was 16.3 µM (inactive) and the GI50 (SK-MEL-5) was 12.6 µM (inactive). For the same compound, the GI50 (SK-OV-3) was 32.4 µM (inactive), the GI50 (SN12C) was 12.9 µM (inactive) and the GI50 (SNB-19) was 33.2 µM (inactive). The GI50 (SNB-75) was 15.5 µM (inactive), the GI50 (SW-620) was 7.41 µM (inactive) and the GI50 (TK-10) was 15.3 µM (inactive). The GI50 (U-251) was 14 µM (inactive), the GI50 (UACC-257) was 12.9 µM (inactive) and the GI50 (UACC-62) was 12.9 µM (inactive). For the same compound, the GI50 (UO-31) was 17.7 µM (inactive).
